According to US20110110886A1, “SMALL MOLECULE INHIBITORS OF AUTOTAXIN AND METHODS OF USE” (Yale University, priority 2008, published 2011):
Values joined by “and” are separate entries in the source; they are usually repeats but may differ in a detail not shown here. Identical values can stand only once. Like-named read-outs stand apart in the source and are kept apart here. One block for each molecule: values may come before it.

Experiments:
[1] = molecular target: T1, ATX (recombinant full-length human ATX), lysoPLD activity (Homo sapiens, UniProt Q13822); test: Steady-state ATX lysoPLD activity with fluorescent LPC analogue FS-3; format: biochemical; conditions: for inhibition of ATX lysoPLD activity by GenPlus screen inhibitor analogs / type of inhibition of ATX lysoPLD activity: substrate FS-3; for Ki: substrate FS-3, 37° C.
T1 construct: consistent with a mature, glycosylated form of the enzyme; TEV cleavage site (C); 9-His (C); 6-His (C); made in house; host or cells: High Five insect cells (baculovirus, p-DEST-8)
Experimental: Protein expression and purification: The full length human NPP2 gene (NCBI accession #BC034961) followed by a C-terminal TEV cleavage site and a 9-His and 6-His purification tag was cloned and transferred into a p-DEST-8 baculovirus shuttle vector (Invitrogen), and bacmid DNA was generated by standard methods. […] Three days post infection, the supernatant was adjusted to a final concentration of 50 mM Tris pH 8.0, 5 mM CaCl2, and 1 mM NiSO4 and stirred for 10 min. at room temperature. […] Purified ATX was concentrated to approximately 10 mg mL^−1, and dialyzed into the appropriate assay buffer.
Fluorescence was measured (λex=485 nm, λem=520 nm) on a SpectraMax Gemini XPS at 37° C. under buffer conditions similar to the PDE assays but lacking BSA. […] The spontaneous reaction rates were subtracted from the enzyme catalyzed rates.
The steady-state rates (v) of product formation were obtained by fitting the time courses of absorbance or fluorescence change to linear functions. […] FS-3 hydrolysis product formation was quantitated in arbitrary fluorescence units.
(§1) The Michaelis constants (KM) and the catalytic turnover rate constants (kcat) were obtained by fitting the [substrate]-dependence of v to a rectangular hyperbola in the form of the Briggs-Haldane equation: […]
(§2) in which [S] is [pNP-TMP] or [FS-3]. Inhibitors were treated as reversible inhibitors and analyzed according to the general steady-state linear enzyme inhibitor scheme:
(§3) in which E is ATX, S is pNP-TMP or FS-3 substrate, P are the hydrolysis products, and K1 is the dissociation equilibrium constant for inhibitor binding. The values of α and K1 were obtained by fitting the steady-state rates of product formation (v) to the general inhibition equation: […]
(§4) in which [I] is the inhibitor concentration, kcat is the maximum catalytic turnover rate, and KS is the Michaelis constant of the substrate obtained in the absence of inhibitor.
(§5) The type of inhibition (competitive, noncompetitive, or uncompetitive) depends on the value of α.
(§6) The type of inhibition was assigned if the difference between the r^2 values of the fits to the general inhibition equation (Eq 2) and the specific inhibition (i.e. competitive, noncompetitive or uncompetitive) equations was less than 0.01.

[2] = molecular target: T2, ATX (recombinant full-length human ATX), PDE activity (Homo sapiens, UniProt Q13822); test: Steady-state ATX phosphodiesterase (PDE) activity with pNP-TMP, absorbance 405 nm; format: biochemical; conditions: for Ki: 25° C., read-out: KI (dissociation equilibrium constant for inhibitor binding), ATX PDE activity
T2 construct: consistent with a mature, glycosylated form of the enzyme; TEV cleavage site (C); 9-His (C); 6-His (C); made in house; host or cells: High Five insect cells (baculovirus, p-DEST-8)
Source text: Protein expression and purification: The full length human NPP2 gene (NCBI accession #BC034961) followed by a C-terminal TEV cleavage site and a 9-His and 6-His purification tag was cloned and transferred into a p-DEST-8 baculovirus shuttle vector (Invitrogen), and bacmid DNA was generated by standard methods. The DNA sequence and correct transposition of the genes was verified by PCR, and recombinant full-length human ATX was expressed in High Five insect cells using standard methods. Three days post infection, the supernatant was adjusted to a final concentration of 50 mM Tris pH 8.0, 5 mM CaCl2, and 1 mM NiSO4 and stirred for 10 min. at room temperature. The resulting precipitant was removed by centrifugation (4,420×g for 30 minutes) and filtration ([…]), and the supernatant was concentrated using a Pall concentration system to approximately 250 mL. The cell media was passed over a nickel affinity column (5 mL, Fastflow resin), equilibrated in binding buffer (20 mM Tris pH 8.0, 300 mM NaCl, 20 mM imidazole, and 20% ethylene glycol) at 4° C., washed with 10 column volumes of binding buffer, and then eluted with binding buffer supplemented with 300 mM imidazole. Purified ATX was concentrated to approximately 10 mg mL^−1, and dialyzed into the appropriate assay buffer.
Steady-state enzyme assays: Phosphodiesterase activity of ATX (75-100 nM) was measured by absorbance (λ=405 nm) on a SpectraMax 250 plate reader at 25° C. with the substrate pNP-TMP [36]. Reactions were run in assay buffer containing 10% DMSO (v/v) and 1 mg mL^−1 BSA (hexachlorophene, merbromin, and bithionol) or without BSA (NSC 48300, 2,2′-Methylenebis(4-chlorophenol), eosin Y, and RJC 03297) in a total volume of […]. The uncatalyzed reaction rate was ≦10^−7 s^−1 (data not shown).
The steady-state rates (v) of product formation were obtained by fitting the time courses of absorbance or fluorescence change to linear functions. Absorbance units were converted to p-nitrophenylate concentration using ε405 of 18.5 mM^−1 cm^−1 [39] and a measured path length of 0.494 cm. FS-3 hydrolysis product formation was quantitated in arbitrary fluorescence units.
as §1, §2, §3, §4, §5, §6

[3] = system: human melanoma cell line (A2058); test: Boyden chamber cell migration assay, melanoma cells; format: cell-based; conditions: for inhibition of ATX-induced stimulation of melanoma cell motility: A2058, 50 nM ATX, 4 hours
Experimental: (§7) All cell media was supplemented with 10% (v/v) fetal calf serum (FCS) (Gibco) and 1% (v/v) L-glutamine (Gibco) and grown at 37° C. in a humidified atmosphere containing 5% CO2.
The assay chambers are divided by a gelatin-coated membrane with […] pores (NeuroProbe). […] The chambers were then incubated at 37° C. for 4 hours, after which the filters were removed, fixed in 100% methanol, stained with a DiffQuick solution, and mounted onto glass slides. Non-migrating cells were removed from the membrane by scraping the top surface. The cells were quantitated by counting the cell number per high powered field in the various wells. Treatments were compared using a chi squared test.

A2058 melanoma cells = test: Matrigel cell invasion assay, melanoma cells; format: cell-based, human; conditions: for inhibition of ATX-induced stimulation of melanoma cell invasion: A2058, 50 nM ATX
Experimental: as §7
Cell invasion assays: Matrigel matrix (1 mg/ml, Becton Dickenson) was added to […] gelatin-coated membranes placed in cell culture inserts (BD Falcon) and allowed to set for 24 hours at room temperature. The inserts were placed into companion 24 well plates (BD Falcon), and chemo-attractants (ATX ±inhibitors) and/or controls were added to the bottom of the wells. Cells (1×10^6) were added to the inserts and incubated for 3 hours at 37° C. Following incubation, the inserts were removed, fixed in 100% methanol, stained with DiffQuick solution, and mounted on glass slides. Non-invading cells were removed by scraping away the matrigel, and migrating cells were quantitated by counting cell number per high-powered field.

ATX lyso-PLD activity = molecular target: T3, ATX lyso-PLD activity (Homo sapiens, UniProt Q13822); test: Time course assay of ATX lyso-PLD activity (FS-3 fluorescent product) with or without 10 μM compound over 30 minutes; format: biochemical; conditions: 10 μM inhibitor, 30 minute interval, compared with NSC 48300
T3 construct: consistent with a mature, glycosylated form of the enzyme; TEV cleavage site (C); 9-His (C); 6-His (C); made in house; host or cells: High Five insect cells (baculovirus, p-DEST-8)
Experimental: C. Structure of hexachlorophene, merbromin. Bithionol and their analogs -2,2′-Methylenebis(4-chlorophenol), Eosin Y and RJC 03297, respectively. D. Structure of NSC 48300 and its analogs. […] The assay conditions are 300 nM ATX in the presence or absence of 10 μM compound over 30 minutes.
Inhibitor screen: High throughput screens were performed against two libraries: the GenPlus library of 960 compounds (NINDS Custom Collection, MicroSource Discovery systems) and the NCI Diversity Set (1990 compounds, see http://dtp.nci.nih.gov/branches/dscb/repo_open.html). The screens were performed at the Yale Center for Chemical Genomics utilizing a Tecan Aquarius robot in combination with an Aquarius liquid handler and a Freedom EVO Workstation. A V&P Scientific 384 pin tool transferred small molecules (10 mM stock) from library plates into the optically clear, 384 well assay plates, and an Aquarius liquid handling robot transferred protein into the individual wells. The assays were performed in a total volume of 50 μL in assay buffer (50 mM Tris, 140 mM NaCl, 1 mM MgCl2, and 5 mM CaCl2, pH 8.0). Absorbance of p-nitrophenylate, the product of ATX's PDE activity with pNP-TMP (discussed below) was measured at 405 nm over a period of 12 hours. To monitor lysophospholipase-D activity, the fluorescence of FS-3 (625 nM or 4 μM) was monitored (λex=480 nm, λem=535 nm) in assay buffer over a period of 30 minutes in the presence of 300 nM ATX and 10 μM compound. The assay was evaluated using a statistical Z′ analysis, a quantitative measure to determine assay robustness for single point analysis on a high throughput screening platform. The Z′ analysis was performed from 32 maximum control values (c+) and 32 minimum controls (c−) on each plate. Assays consistently performed with Z′ factors of 0.75-0.85, higher than the minimum 0.5 considered robust.
Inhibition of ATX lyso-PLD activity by several NSC48300 analogs was qualitatively compared in a time course assay by measuring the production of fluorescent product in the presence or absence of 10 µM inhibitor over a 30 minute interval.

[4] = system: adenocarcinoma cell motility; conditions: reported in ref. [40]; read-out: EC50, inhibition of adenocarcinoma cell motility; cited from earlier work
[5] = ATX-dependent hydrolysis, fit to Eq. 1

Molecule: Oc1ccc(Cl)cc1Cc1cc(Cl)ccc1O [2,2′-Methylenebis(4-chlorophenol)]
inhibition of ATX lysoPLD activity by GenPlus screen inhibitor analogs [1]: only Eosin Y (an analogue of merbromin) inhibits ATX lysoPLD activity | type of inhibition of ATX PDE activity ([2]; substrate pNP-TMP): noncompetitively | Ki ([2]; substrate pNP-TMP): 104 µM

Molecule: O=C([O-])c1ccccc1-c1c2cc(Br)c(=O)cc-2oc2[c]([Hg+])c([O-])c(Br)cc12.[Na+].[Na+].[OH-] [Merbromin]
type of inhibition of ATX PDE activity ([2]; substrate pNP-TMP): noncompetitive inhibition | Ki ([2]; substrate pNP-TMP): 43 µM | inhibition of ATX-induced stimulation of melanoma cell motility [3]: inhibited in a dose-dependent manner | inhibition of ATX-induced stimulation of melanoma cell invasion (A2058 melanoma cells): inhibited in a dose-dependent manner

inhibition of ATX lysoPLD activity by GenPlus screen inhibitor analogs [1]: inhibits ATX lysoPLD activity | type of inhibition of ATX lysoPLD activity [1]: noncompetitive | Ki [1]: 116 µM | type of inhibition of ATX PDE activity ([2]; substrate pNP-TMP): competitively | Ki ([2]; substrate pNP-TMP): 9.6 µM
Molecule: O=C1OC2(c3ccccc31)c1cc(Br)c(O)c(Br)c1Oc1c2cc(Br)c(O)c1Br [Eosin Y]

Molecule: lysophosphatidic acid [LPA]
increase in number of invading cells per hpf (A2058 melanoma cells; A2058, ATX (50 nM) or LPA (75 nM)): 3.5 fold

Molecule: COC(=O)c1ccc(Cc2ccc(C(=O)OC)cc2)cc1 [NSC 86629]
qualitative effect of structural change on inhibition of ATX lyso-PLD activity (ATX lyso-PLD activity): eliminates inhibition

Km [1, 5]: 4.5 µM
Molecule: Fluorescent Substrate-3 [FS-3]

Molecule: Cc1ccc2c(c1)C(=O)C1(O)CCN(c3ccccc3)C1=N2 (stereo not shown) [Blebbistatin]
EC50 [4]: ~50 µM | EC50 ([3]; A2058, 75 nM LPA, read-out: EC50, inhibition of cell motility with addition of LPA): 27 µM | EC50 ([3]; A2058, in the presence of 50 nM ATX, read-out: EC50, inhibition of ATX-induced cell motility): 54 µM

Molecule: O=[As](O)(O)c1ccc(-c2ccc([As](=O)(O)O)cc2)cc1 [NSC 13792]
qualitative effect of structural change on inhibition of ATX lyso-PLD activity (ATX lyso-PLD activity): eliminates inhibition

Molecule: Oc1c(Cl)cc(Cl)c(Cl)c1Cc1c(O)c(Cl)cc(Cl)c1Cl [Hexachlorophene]
type of inhibition of ATX lysoPLD activity [1]: competitive inhibitor | Ki [1]: 68 µM | type of inhibition of ATX PDE activity ([2]; substrate pNP-TMP): competitive inhibition | α value from general steady-state inhibition equation (Eq. 2) ([2]; substrate pNP-TMP): > 45 | Ki ([2]; substrate pNP-TMP): 15 µM | inhibition of ATX-induced stimulation of melanoma cell motility [3]: inhibited in a dose-dependent manner | inhibition of ATX-induced stimulation of melanoma cell invasion (A2058 melanoma cells): inhibited in a dose-dependent manner

Molecule: Cc1cn([C@H]2C[C@H](O)[C@@H](COP(=O)(O)Oc3ccc([N+](=O)[O-])cc3)O2)c(=O)[nH]c1=O [pNP-TMP, p-Nitrophenyl 5′-thymidine monophosphate]
Km [2, 5]: 1400 µM | kcat for pNP-TMP hydrolysis [2, 5]: 1.6 s^−1 and 1.6 (±0.1) s^−1
